Data: ChEMBL document CHEMBL5291721, “A preclinical secondary pharmacology resource illuminates target-adverse drug reaction associations of marketed drugs” (Nat Commun, 2023)

Legend:
[1] = biological target: T1, Muscarinic acetylcholine receptor M4 (Homo sapiens, UniProt P08173)
T1 sequence (P08173 whole entry): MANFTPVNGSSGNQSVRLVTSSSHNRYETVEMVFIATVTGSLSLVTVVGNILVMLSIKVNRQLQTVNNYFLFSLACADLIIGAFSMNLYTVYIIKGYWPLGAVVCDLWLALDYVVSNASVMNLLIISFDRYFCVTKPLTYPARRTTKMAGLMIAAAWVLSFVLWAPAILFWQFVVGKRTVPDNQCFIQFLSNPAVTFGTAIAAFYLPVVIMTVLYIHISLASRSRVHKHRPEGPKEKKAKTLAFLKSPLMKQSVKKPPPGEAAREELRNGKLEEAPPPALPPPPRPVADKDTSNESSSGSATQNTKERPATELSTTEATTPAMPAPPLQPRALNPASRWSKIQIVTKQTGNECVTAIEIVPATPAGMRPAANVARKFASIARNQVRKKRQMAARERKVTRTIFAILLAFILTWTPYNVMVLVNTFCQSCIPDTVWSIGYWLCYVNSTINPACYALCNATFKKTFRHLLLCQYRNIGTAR

[2] = biological target: Vascular endothelial growth factor receptor 2 (Homo sapiens, UniProt P35968); assay type: functional
[3] = biological target: T2, Thromboxane A2 receptor (Homo sapiens, UniProt P21731); assay type: functional, cell-based
T2 sequence (P21731 whole entry): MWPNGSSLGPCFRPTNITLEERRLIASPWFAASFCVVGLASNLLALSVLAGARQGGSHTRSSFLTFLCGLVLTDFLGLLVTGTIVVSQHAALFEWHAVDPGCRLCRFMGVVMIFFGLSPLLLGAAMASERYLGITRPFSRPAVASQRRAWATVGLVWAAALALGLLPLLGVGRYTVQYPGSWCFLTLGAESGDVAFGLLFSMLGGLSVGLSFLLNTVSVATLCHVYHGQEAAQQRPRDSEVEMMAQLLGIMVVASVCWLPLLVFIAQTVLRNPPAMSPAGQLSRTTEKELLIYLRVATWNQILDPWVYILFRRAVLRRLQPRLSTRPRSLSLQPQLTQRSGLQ

[4] = biological target: T3, Histamine H1 receptor (Homo sapiens, UniProt P35367); assay type: functional, cell-based
[5] = biological target: T3, Histamine H1 receptor; assay type: functional, cell-based; remark: listed apart in the source
[6] = biological target: Hydroxycarboxylic acid receptor 2 (Homo sapiens, UniProt Q8TDS4)
[7] = biological target: T4, Androgen receptor (Rattus norvegicus, UniProt P15207); assay type: functional
T4 sequence (P15207 whole entry): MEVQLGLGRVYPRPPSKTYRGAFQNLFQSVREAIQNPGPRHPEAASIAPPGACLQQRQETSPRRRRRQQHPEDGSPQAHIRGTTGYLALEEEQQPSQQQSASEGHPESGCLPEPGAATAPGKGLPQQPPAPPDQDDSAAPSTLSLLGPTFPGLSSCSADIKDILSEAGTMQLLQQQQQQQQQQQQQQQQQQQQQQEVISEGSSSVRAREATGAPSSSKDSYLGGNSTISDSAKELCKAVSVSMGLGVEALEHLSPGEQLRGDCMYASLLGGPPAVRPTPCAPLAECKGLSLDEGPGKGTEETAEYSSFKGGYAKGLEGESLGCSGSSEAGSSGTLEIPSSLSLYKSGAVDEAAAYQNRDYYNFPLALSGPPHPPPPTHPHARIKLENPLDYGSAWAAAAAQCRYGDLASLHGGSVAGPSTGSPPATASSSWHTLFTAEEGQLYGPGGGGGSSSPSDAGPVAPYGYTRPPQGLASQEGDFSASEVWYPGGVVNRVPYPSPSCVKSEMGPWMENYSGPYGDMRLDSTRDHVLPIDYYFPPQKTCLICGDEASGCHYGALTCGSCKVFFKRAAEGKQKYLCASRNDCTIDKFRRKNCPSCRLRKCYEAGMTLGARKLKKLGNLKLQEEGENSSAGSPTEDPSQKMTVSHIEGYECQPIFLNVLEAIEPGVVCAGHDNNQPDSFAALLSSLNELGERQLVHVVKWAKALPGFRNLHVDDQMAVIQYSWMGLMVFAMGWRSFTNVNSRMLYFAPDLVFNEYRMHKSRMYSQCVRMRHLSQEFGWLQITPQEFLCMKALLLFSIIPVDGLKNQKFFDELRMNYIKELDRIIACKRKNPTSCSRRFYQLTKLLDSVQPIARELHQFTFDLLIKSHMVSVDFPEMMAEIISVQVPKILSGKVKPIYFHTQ

[8] = biological target: D(1A) dopamine receptor (Homo sapiens, UniProt P21728); assay type: functional, cell-based
[9] = biological target: T5, Muscarinic acetylcholine receptor M2 (Homo sapiens, UniProt P08172)
T5 sequence (P08172 whole entry): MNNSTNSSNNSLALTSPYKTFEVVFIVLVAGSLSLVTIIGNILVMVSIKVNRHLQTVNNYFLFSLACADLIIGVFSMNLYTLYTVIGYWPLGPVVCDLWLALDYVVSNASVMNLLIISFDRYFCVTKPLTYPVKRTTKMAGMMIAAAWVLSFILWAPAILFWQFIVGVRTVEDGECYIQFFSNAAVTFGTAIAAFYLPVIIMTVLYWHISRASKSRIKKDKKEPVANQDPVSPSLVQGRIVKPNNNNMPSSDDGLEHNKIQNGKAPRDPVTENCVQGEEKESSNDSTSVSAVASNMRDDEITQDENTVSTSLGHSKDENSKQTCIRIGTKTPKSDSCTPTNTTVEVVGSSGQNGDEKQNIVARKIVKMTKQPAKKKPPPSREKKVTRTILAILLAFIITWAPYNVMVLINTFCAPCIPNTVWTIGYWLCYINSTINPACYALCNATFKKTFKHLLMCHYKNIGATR
Note: assay procedure not described here.

T3 sequence (P35367 whole entry): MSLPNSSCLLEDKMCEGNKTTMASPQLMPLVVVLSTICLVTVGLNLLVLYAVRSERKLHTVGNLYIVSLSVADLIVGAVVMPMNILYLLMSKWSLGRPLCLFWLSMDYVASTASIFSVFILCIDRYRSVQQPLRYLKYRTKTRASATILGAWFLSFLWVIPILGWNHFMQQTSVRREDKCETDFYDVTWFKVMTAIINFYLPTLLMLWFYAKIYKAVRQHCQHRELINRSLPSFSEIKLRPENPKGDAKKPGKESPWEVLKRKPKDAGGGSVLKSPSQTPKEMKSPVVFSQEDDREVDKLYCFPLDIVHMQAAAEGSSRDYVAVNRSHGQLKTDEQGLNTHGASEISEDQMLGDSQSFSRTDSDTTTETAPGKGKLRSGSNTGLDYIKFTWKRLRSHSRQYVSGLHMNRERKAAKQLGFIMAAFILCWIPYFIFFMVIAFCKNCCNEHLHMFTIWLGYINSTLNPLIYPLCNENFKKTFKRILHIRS
Sequence of Hydroxycarboxylic acid receptor 2 (Q8TDS4 whole entry): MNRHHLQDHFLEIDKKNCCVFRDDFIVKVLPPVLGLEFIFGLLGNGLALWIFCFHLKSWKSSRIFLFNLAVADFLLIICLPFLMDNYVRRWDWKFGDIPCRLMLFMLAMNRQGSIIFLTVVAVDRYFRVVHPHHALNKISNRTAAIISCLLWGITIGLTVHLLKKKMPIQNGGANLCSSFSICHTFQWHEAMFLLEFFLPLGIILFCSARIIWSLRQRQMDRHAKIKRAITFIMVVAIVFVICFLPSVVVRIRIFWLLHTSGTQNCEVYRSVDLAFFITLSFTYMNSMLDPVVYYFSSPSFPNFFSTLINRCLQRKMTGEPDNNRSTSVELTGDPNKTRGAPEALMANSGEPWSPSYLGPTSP
Sequence of Vascular endothelial growth factor receptor 2 (P35968 whole entry): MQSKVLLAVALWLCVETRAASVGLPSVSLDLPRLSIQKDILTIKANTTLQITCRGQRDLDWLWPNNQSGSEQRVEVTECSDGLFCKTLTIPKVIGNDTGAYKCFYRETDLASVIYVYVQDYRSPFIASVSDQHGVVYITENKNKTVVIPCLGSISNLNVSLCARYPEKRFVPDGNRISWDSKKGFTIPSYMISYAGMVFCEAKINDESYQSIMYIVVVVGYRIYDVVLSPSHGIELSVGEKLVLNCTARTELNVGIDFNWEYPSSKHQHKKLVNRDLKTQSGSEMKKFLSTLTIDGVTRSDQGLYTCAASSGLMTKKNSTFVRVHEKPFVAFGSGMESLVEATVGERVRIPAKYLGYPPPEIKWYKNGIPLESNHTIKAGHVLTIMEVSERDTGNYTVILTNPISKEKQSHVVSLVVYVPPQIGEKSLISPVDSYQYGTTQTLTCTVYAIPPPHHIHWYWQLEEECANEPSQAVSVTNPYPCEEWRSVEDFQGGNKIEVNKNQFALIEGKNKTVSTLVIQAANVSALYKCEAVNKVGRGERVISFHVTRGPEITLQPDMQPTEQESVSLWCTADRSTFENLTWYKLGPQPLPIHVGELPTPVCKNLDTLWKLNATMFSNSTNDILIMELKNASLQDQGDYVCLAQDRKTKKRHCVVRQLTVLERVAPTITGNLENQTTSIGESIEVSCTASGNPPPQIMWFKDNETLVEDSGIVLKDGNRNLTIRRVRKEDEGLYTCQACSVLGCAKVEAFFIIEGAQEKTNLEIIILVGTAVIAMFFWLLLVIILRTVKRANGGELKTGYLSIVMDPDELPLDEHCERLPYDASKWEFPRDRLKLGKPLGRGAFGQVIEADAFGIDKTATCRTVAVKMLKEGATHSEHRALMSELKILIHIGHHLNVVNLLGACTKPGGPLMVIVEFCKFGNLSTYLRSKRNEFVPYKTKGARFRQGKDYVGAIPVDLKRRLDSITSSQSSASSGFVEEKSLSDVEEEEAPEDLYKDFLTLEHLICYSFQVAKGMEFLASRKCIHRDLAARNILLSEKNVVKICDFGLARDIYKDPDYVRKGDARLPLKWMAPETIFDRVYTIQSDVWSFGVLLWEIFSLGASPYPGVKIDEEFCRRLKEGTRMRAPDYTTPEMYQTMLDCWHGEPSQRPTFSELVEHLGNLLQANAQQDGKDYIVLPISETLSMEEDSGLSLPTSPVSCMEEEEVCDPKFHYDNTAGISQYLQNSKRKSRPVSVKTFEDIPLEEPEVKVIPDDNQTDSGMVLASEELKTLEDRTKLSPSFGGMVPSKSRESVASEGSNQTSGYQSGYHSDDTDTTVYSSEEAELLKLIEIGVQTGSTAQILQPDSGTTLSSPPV
Sequence of D(1A) dopamine receptor (P21728 whole entry): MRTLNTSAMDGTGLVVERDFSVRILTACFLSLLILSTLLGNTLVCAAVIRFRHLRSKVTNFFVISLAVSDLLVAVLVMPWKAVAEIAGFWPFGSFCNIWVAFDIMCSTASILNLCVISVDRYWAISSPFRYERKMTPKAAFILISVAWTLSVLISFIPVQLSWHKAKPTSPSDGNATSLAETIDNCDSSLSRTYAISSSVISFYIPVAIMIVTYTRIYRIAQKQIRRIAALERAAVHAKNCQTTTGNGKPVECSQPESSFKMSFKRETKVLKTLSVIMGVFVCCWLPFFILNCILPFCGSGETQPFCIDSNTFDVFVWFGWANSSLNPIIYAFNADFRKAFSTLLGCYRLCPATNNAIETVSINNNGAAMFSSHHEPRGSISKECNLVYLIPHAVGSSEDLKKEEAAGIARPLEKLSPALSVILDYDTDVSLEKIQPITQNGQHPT

For CN(C)CCCN1c2ccccc2Sc2ccccc21 [PROMAZINE], which AC50 [1] is on record?
Its AC50 is 1.44 µM.

Which results are given for O=C(Nc1ccccc1)OCC(CN1CCCCC1)OC(=O)Nc1ccccc1 (configuration not stated) [DIPERODON]?
AC50 [1]: > 10 µM; AC50 [2]: > 30 µM; AC50 [3]: > 30 µM

C=C1C[C@@H]2[C@H](CC[C@]3(C)C(=O)CC[C@@H]23)[C@@]2(C)C=CC(=O)C=C12 [EXEMESTANE] was tested. Which AC50 [4] did it give?
The AC50 was greater than 30 µM.

What about the AC50 [5] of the same compound?
The AC50 was greater than 30 µM.

How did the AC50 [6] turn out when O=C1CCC(N2C(=O)c3ccccc3C2=O)C(=O)N1 (configuration not stated) [THALIDOMIDE] was run?
The AC50 was greater than 10 µM.

What does the source list for CCCC(=O)N1CCCN(c2nc(N)c3cc(OC)c(OC)cc3n2)CC1 [BUNAZOSIN]?
AC50 [7]: > 30 µM; AC50 [4]: > 30 µM; AC50 [5]: > 30 µM

With C[N+](C)(C)CCOC(N)=O [CARBAMOYLCHOLINE] as the compound, how does the AC50 [8] read?
The AC50 was greater than 30 µM.

CC(=O)OC(C)C[N+](C)(C)C (configuration not stated) [METHACHOLINE] was tested. Which AC50 [9] did it give?
Its AC50 is 9.7 µM.
